Experimental findings from PubChem BioAssay (NCI) are described below.

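Tested at 5 concentrations; 48 h exposure; 96-well plates; endpoints linearly interpolated, else capped at highest concentration. TGI is the concentration that stops growth completely.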

What all share (experiment): inhibition of tumour cell growth, NCI panel, 48 h
Assay [1] relates to 786-0 renal.
For assay [2], the system named is A498 renal.
In assay [3] the test system is COLO 205 colon.
The subject of assay [4] is HOP-62 NSCLC.
Assay [5] relates to HS 578T breast.
Assay [6] concerns MOLT-4 leukemia.
Assay [7] has as its system NCI-H23 lung.
In assay [8] the test system is NCI-H460 lung.
The subject of assay [9] is RXF 393 renal.
Assay [10] concerns SK-MEL-5 melanoma.
Assay [11] concerns SR leukemia.

Take `Cc1cc(C)nc(NS(=O)(=O)c2ccc(NC(=O)c3cccc4c(NNc5ccc(S(=O)(=O)N=C(N)N)cc5)c5ccccc5nc34)cc2)n1`: the TGI in [1], in assay [2], in assay [3], in assay [4], in assay [5] and in [6] was above 50 µM in each case. For the same compound, the TGI in [7], in assay [8], in assay [9], in assay [10] and in assay [11] was above 50 µM throughout.
Turning to `C/C(=N\Nc1nc2ccccc2s1)c1ccc2ccccc2n1`, the TGI in assay [1], in assay [2], in [3], in assay [4], in assay [5] and in assay [7] was above 100 µM throughout. Also, the TGI is above 100 µM in [8], 73.3 µM in [9], above 100 µM in assay [10] and 5.88 µM in [11].
Regarding `O=C1CS(=O)(=O)C(c2cccc(Oc3ccccc3)c2)N1c1cc(Cl)ccc1Cl` (centres undefined), the TGI in assay [1] was 34.8 µM; in assay [3] it was above 100 µM; in [5], above 100 µM; in [6], above 100 µM; in assay [7], above 100 µM; in assay [8] it was 53.5 µM. The TGI was 31.2 µM in [10] and above 100 µM in assay [11].
On to `COc1cc(C(O)c2ccc3c(c2)OCO3)cc(OC)c1OC` (centres undefined), for which the TGI in assay [1], in [2], in [3], in [4], in assay [5] and in assay [6] was above 100 µM in each case. Also, the TGI in [7], in assay [8], in assay [10] and in assay [11] was above 100 µM in each case.
For the compound `O=C(CC(C(=O)c1ccco1)c1ccco1)c1ccco1` (centres undefined), the TGI in [1], in assay [2], in [3], in [4], in assay [5] and in assay [6] was above 100 µM in each case. For the same compound, the TGI in [7], in assay [8], in [9], in [10] and in [11] was above 100 µM each time.
In the case of `CN(C)c1ccc(Cc2cc3c(O)ccc(O)c3cc(Cc3ccc(N(C)C)cc3)c2=O)cc1`, the TGI in assay [1] was 32.1 µM; in [2] it was above 75.5 µM; in assay [3], 36.6 µM; in [4], above 100 µM; in assay [5], 97.9 µM; in assay [6] it was 8.81 µM. The TGI in assay [7] is 53.9 µM; in assay [8] it was above 100 µM; in [9], 31.9 µM; in assay [10] it was 39.3 µM; in assay [11], above 26.5 µM.
On to `COc1ccc(N2C(=O)C3c4[nH]c5ccccc5c4C4CCCCCCCCCC4C3C2=O)cc1` (centres undefined), for which the TGI in [2], in [3], in assay [4], in assay [5], in assay [6] and in assay [7] was above 10 µM throughout. Besides, the TGI in [8], in assay [9], in [10] and in assay [11] was above 10 µM each time.
With `CCNc1ncnc2sc(SCc3ccccc3)nc12`, the TGI in assay [1], in assay [2], in [3], in assay [4], in [5] and in assay [6] was above 100 µM throughout. Further, the TGI in assay [7], in assay [8], in assay [9], in assay [10] and in assay [11] was above 100 µM throughout.
Consider `Cc1c(-c2ccccc2)[nH]n(C2=NCCN2)c1=O`, for which the TGI in assay [1], in assay [2], in assay [3], in assay [4], in assay [5] and in assay [6] was above 100 µM throughout. Further, the TGI in [7], in assay [8], in assay [9], in [10] and in assay [11] was above 100 µM in each case.
Turning to `COc1ccc(Oc2cnn(C(Br)(Br)C(C)=O)c(=O)c2Br)cc1`, the TGI was 27.4 µM in assay [1]; 59.9 µM in assay [2]; 26.9 µM in [3]; 35.5 µM in assay [4]; above 71.6 µM in [5]; 3.56 µM in assay [6]. Moreover, the TGI stood at 39 µM in assay [7]; 37.1 µM in assay [8]; 16.8 µM in assay [9]; 30 µM in assay [10]; 5.32 µM in assay [11].
With `O=[N+]([O-])c1cccc2c(N=Nc3ccc4ccccc4c3O)c(O)cc(S(=O)(=O)O)c12`, the TGI in assay [1], in [4], in assay [5], in assay [6], in [7] and in [9] was above 100 µM in each case. In addition, the TGI in assay [10] and in [11] was above 100 µM in each case.
Consider `Cc1cc(NS(=O)(=O)c2ccc(NC(NC(=O)C(C(F)(F)F)C(F)(F)F)(C(F)(F)F)C(F)(F)F)cc2)no1`, for which the TGI in assay [1], in assay [3], in [4], in [5], in [6] and in assay [7] was above 100 µM each time. Moreover, the TGI in assay [8], in assay [9], in [10] and in assay [11] was above 100 µM throughout.
As for `COC(=O)N1N=C(c2ccccc2)C1c1ccccc1` (centres undefined), the TGI in [1] was above 100 µM; in assay [2], above 100 µM; in assay [3], above 100 µM; in [5] it was above 100 µM; in assay [6], above 100 µM; in [7], 88 µM. Further, the TGI in assay [8], in assay [9] and in assay [11] was above 100 µM each time.
For the compound `CC1(C)CC(C#Cc2ccccc2)CC(C)(C)N1O`, the TGI is 76.7 µM in assay [1]; 49.4 µM in [3]; 32.7 µM in assay [4]; 44.9 µM in assay [5]; above 100 µM in [6]; 35.2 µM in [7]. The TGI in [8] was 44.8 µM; in [9] it was 63.4 µM; in assay [10], 30.7 µM; in [11] it was above 100 µM.
Take `O=S1SC(=S)C2C=CC=CC21` (centres undefined): the TGI in assay [1], in assay [2], in assay [3], in assay [5], in [6] and in assay [7] was above 100 µM in each case. Also, the TGI in assay [8], in assay [9], in [10] and in assay [11] was above 100 µM in each case.
As to `COc1nc2c(N3CCCC3)nc(N3CCNCC3)nc2nc1NCc1ccccc1`, the TGI in [1] came out at 2.66 µM; in assay [3], 1.98 µM; in [4], 2.29 µM; in assay [5], 5.14 µM; in [6], 4.65 µM; in [7], 5.88 µM. Besides, the TGI in [8] is 4.91 µM; in assay [9] it was 2.73 µM; in [10] it was 2.88 µM; in [11], 3.37 µM.
For `CCOC(=O)c1c(SCCN2CCOCC2)n(-c2ccccc2)c(=S)n(-c2ccccc2)c1=O`, the TGI is 46 µM in [1]; above 100 µM in assay [3]; 87.4 µM in assay [5]; 92.5 µM in assay [6]; 92.3 µM in assay [7]; above 100 µM in [8]. The figures for the TGI in [9], in [10] and in assay [11] were 33.9 µM, 90.1 µM and 48.2 µM, respectively.
As for `O=C1C(C(O)(C(F)(F)F)C(F)(F)F)CCC1C(O)(C(F)(F)F)C(F)(F)F` (centres undefined), the TGI in [1] is above 38.8 µM; in assay [2] it was 6.23 µM; in assay [3] it was 1.86 µM; in assay [5], 51.9 µM; in assay [6], above 100 µM; in [7], 6.75 µM. For the same compound, the TGI in assay [8] was above 100 µM; in [9], 26 µM; in assay [10] it was 16.2 µM; in [11], 43.8 µM.
Regarding `CON(C)C(=O)C1CCCO1` (centres undefined), the TGI in [1], in [2], in assay [3], in assay [4], in assay [5] and in [6] was above 100 µM each time. Further, the TGI in assay [7], in [8], in [10] and in [11] was above 100 µM in each case.
In the case of `O=C1c2cccc(O)c2C(=O)c2c(OC3OC(CO)C(O)C(O)C3O)cccc21` (centres undefined), the TGI is above 100 µM in [1]; above 100 µM in assay [2]; 39.2 µM in assay [3]; above 100 µM in assay [4]; 58.1 µM in [5]; 31.6 µM in assay [7]. Also, the TGI in assay [8] was 59 µM; in assay [9], 97.3 µM; in assay [10], 36 µM; in [11] it was above 100 µM.
As to `C=CC(=O)N1C/C(=C\c2ccc(Cl)cc2)C(=O)/C(=C/c2ccc(Cl)cc2)C1`, the TGI was 0.55 µM in assay [1]; 1.25 µM in assay [2]; 0.719 µM in assay [3]; 1.02 µM in [4]; 1.36 µM in assay [5]; 2.15 µM in assay [7]. Besides, the TGI was 1.18 µM in assay [8], 0.659 µM in [9], 5.11 µM in assay [10] and above 100 µM in [11].
In the case of `CCN(CCCl)c1cc(CN(C)C)cc(NC(=O)c2ccc(C(=O)Nc3cccc(CN(C)C)c3)cc2)c1`, the TGI was found to be 2.35 µM in assay [1]; 7.33 µM in [2]; 2.41 µM in assay [3]; 10.8 µM in assay [4]; 0.671 µM in assay [5]; 0.904 µM in assay [6]. The TGI in [7] was determined as 11.2 µM; in assay [8], 10.6 µM; in [9], 0.82 µM; in assay [11], 1.56 µM.
In the case of `CCOC(=O)C1CCC(=O)N1C(=O)c1ccccc1Cl` (centres undefined), the TGI in assay [1], in [2], in assay [4], in [5], in [6] and in [7] was above 100 µM throughout. Moreover, the TGI in assay [8], in assay [9], in assay [10] and in assay [11] was above 100 µM throughout.
On to `CN1CCN(C2=C(Cl)C3(OCCS3)C(F)(F)C2(F)F)CC1` (centres undefined), for which the TGI in assay [1], in [2], in [3], in assay [4], in [5] and in assay [6] was above 100 µM each time. The TGI in assay [7] was above 100 µM; in [9] it was above 100 µM; in [10], 61.7 µM; in [11], above 100 µM.
As to `COc1ccc(C2c3cc4c(cc3OC(NCCO)C2C)OCO4)cc1` (centres undefined), the TGI in assay [2] is 48.8 µM; in assay [3], 36.2 µM; in assay [4], above 100 µM; in [5] it was 59.3 µM; in [6] it was 50 µM; in assay [7], above 100 µM. Moreover, the TGI is 63.6 µM in assay [8], 75.2 µM in assay [9], 44.7 µM in assay [10] and 39.9 µM in assay [11].
Take `CCOP(=O)(OCC)OC1CC(n2cc(C)c(=O)n(C)c2=O)OC1CO[Si](C)(C)C(C)(C)C` (centres undefined): the TGI in assay [1], in [3], in assay [4], in assay [5], in assay [6] and in assay [7] was above 100 µM throughout. The TGI in [8], in assay [9], in assay [10] and in [11] was above 100 µM in each case.
`O=[N+]([O-])c1ccc2c(c1)c(N=NC(=S)Nc1ccc(Cl)cc1)c(O)n2CN1CCOCC1`: the TGI in [1] stood at 16.7 µM; in assay [3], 27.8 µM; in assay [5], 28.4 µM; in assay [6], 2.97 µM; in assay [7] it was 9.44 µM; in assay [8], 20.3 µM. The TGI in assay [9] stood at 19.9 µM; in [10] it was 17.7 µM; in assay [11], 8.44 µM.
